From patent publication US20230000876A1, “TREATING CANCERS WITH A CYCLIN-DEPENDENT KINASE INHIBITOR” (Nuvation Bio Inc., priority 2021, published 2023)
Where two headings read alike, the source gives them in different places.

Legend:
MCF-7 tumors = assay type: in vivo; conditions: for T/C / TGI / Tumor Size: PG-D49
Procedure: The in vivo anti-tumor efficacy of the compound of formula (I) either alone or in combination with fulvestrant on MCF-7 breast tumor model on female Balb/c nude mice was evaluated. The protocol was he same as described in Example 1 with the exception that the dosing schedule of fulvestrant was modified.

PC-9-luc = assay: CellTiter-Glo anti-proliferation assay, PC-9-luc; assay type: cell-based
Procedure: (§1) The anti-proliferation effect of 2 compounds (the compound of formula (I) and temozolomide) in 7 CNS metastasis cell lines (MOLT-4-luc, Nalm-6-luc, NCI-H460-luc, ACHN-luc2, PC-9-luc, H1975-luc, and KM12-luc) was evaluated.
(§2) The plating of cells and compound treatments are shown below in the plate map (Table 12). One plate was needed for the test of 2 compounds (the compound of formula (I) and temozolomide) in one cell line. The compound of formula (I) was tested from 10 μM, 3-fold serial dilution. Temozolomide was tested from 100 μM, 3-fold serial dilution.
(§3) All the cell lines were maintained in culture conditions at 37° C. in an atmosphere with 5% CO2 in air. The tumor cells were routinely subcultured. The cells growing in an exponential growth phase were harvested and counted for plating.
(§4) Cells were counted by haemocytometer with Trypan blue staining. Next, 135 μL of cell suspension were plated into the assay plates according to the plate map and 135 μL of assay medium into the blank wells. The plates were incubated at 37° C., 5% CO2, 95% air and 100% relative humidity overnight.
(§5) 4.4.4 Compound Plate (10×) Preparation and Compound Treatment • 10× concentrate compound plate preparation: Add 198 μL of assay medium into each well of the V-bottom plate; then transfer 2 μL of the stock compound solution of each concentration from the stock plate. Add 2 μL of DMSO into the Blank and Control wells. Pipette up and down to mix well. This V-plate is designated as the 10× concentrate compound plate. • For day 0 plate, add 15 μL of the DMSO-medium into the Control wells. The final DMSO concentration was 0.1%. Then directly proceed to cell viability assay. • For assay plate, add 15 μL of the compound-medium of each well from the 10× concentrate compound plate into the cells in 96-well assay plate according to the plate map. Add 15 μL of the DMSO-medium into the Blank and Control wells. The final DMSO concentration was 0.1%. • Return the assay plate into incubator and incubate for 6 days.
(§6) The procedures were performed according to the Promega CellTiter-Glo Luminescent Cell Viability Assay Kit manual (Promega-G7573). • The CellTiter-Glo buffer was thawed and equilibrated to room temperature prior to use. • CellTiter-Glo Substrate was equilibrated to room temperature prior to use. • The entire liquid volume of CellTiter-Glo Buffer was transferred into the amber bottle containing CellTiter-Glo Substrate to reconstitute the lyophilized enzyme/substrate mixture. This forms the CellTiter-Glo Reagent. • The contents were mixed by gently vortexing to obtain a homogeneous solution. • The plate was equilibrated and its contents to room temperature for approximately 30 minutes. 75 μL (equal to the half volume of culture medium present in each well) CellTiter-Glo • Reagent was added in each well. Plates were covered with aluminum foil to protect from light. • The contents were mixed for 2 minutes on an orbital shaker to induce cell lysis. • The plate was incubated at room temperature for 20 minutes to stabilize luminescent signal. • Record luminescence on the 2104 EnVision plate reader.
(§7) Inhibition rate (IR) of the tested compounds was determined by the following formula: IR (%)=(1−(RLU compound−RLU day0)/(RLU control−RLU day0))*100%. The inhibitions of different dose of compound were calculated in Excel file, and then were used to plot inhibition curves and evaluate related parameters, such as Min (%), Max (%) and GI50. The data were interpreted by GraphPad Prism.

NCI-H460-luc = assay: CellTiter-Glo anti-proliferation assay, NCI-H460-luc; assay type: cell-based
Procedure: as §1, §2, §3, §4, §5, §6, §7

xBT474 breast tumor = xBT474 breast tumor model (ER-negative/HER2-positive); conditions: Group 5: Compound (I) 30 mg/kg PO QD*28 days
COLO 829 = assay: Cell viability assay, melanoma cell line COLO 829; assay type: cell-based
Procedure: as §5
as §6, with “This forms the CellTiter-Glo Reagent. • The contents were mixed by gently vortexing to obtain a homogeneous solution. • The plate was equilibrated and its contents to room temperature for approximately 30 minutes. 75 μL (equal to the half volume of culture medium present in each well) CellTiter-Glo • Reagent was added in each well.” left out
as §7, with “The data were interpreted by GraphPad Prism.” left out

SK-MEL-3 = assay: Cell viability assay, melanoma cell line SK-MEL-3; assay type: cell-based
Procedure: as §5
as §6, with “This forms the CellTiter-Glo Reagent. • The contents were mixed by gently vortexing to obtain a homogeneous solution. • The plate was equilibrated and its contents to room temperature for approximately 30 minutes. 75 μL (equal to the half volume of culture medium present in each well) CellTiter-Glo • Reagent was added in each well.” left out
as §7, with “The data were interpreted by GraphPad Prism.” left out

Nalm-6-luc = assay: CellTiter-Glo anti-proliferation assay, Nalm-6-luc; assay type: cell-based
Procedure: as §1, §2, §3, §4, §5, §6, §7

ACHN-luc2 = assay: CellTiter-Glo anti-proliferation assay, ACHN-luc2; assay type: cell-based
Procedure: as §1, §2, §3, §4, §5, §6, §7

H1975-luc = assay: CellTiter-Glo anti-proliferation assay, H1975-luc; assay type: cell-based
Procedure: as §1, §2, §3, §4, §5, §6, §7

[1] = test system: 7 melanoma cell lines (A375, COLO 829, SK-MEL-3, SK-MEL-5, SK-MEL-24, SK-MEL-28, SK-MEL-31); assay: Anti-proliferation assay, 7 melanoma cell lines taken together; assay type: cell-based
Procedure: as §7
The anti-proliferation effect of the compound of formula (I) in 7 CNS melanoma cell lines was evaluated.

U-118MG xenograft tumors = assay: U-118MG glioma subcutaneous xenograft model; assay type: in vivo, female CB17 SCID mice; conditions: Group 3: Compound (I) 30 mg/kg PO, QD; PG-D27
[2] = 144 h, 6 days incubation, read-out: Absolute GI50
[3] = inhibition rate, 6 days, Compound (I) from 10 μM, temozolomide from 100 μM, 3-fold, 9 points

SMILES: CC(C)N1CCOc2c(F)cc(-c3nc(Nc4ccc(C5CCN(C)CC5)cn4)ncc3F)cc21 [Compound (I), 5-fluoro-4-(8-fluoro-4-isopropyl-3,4-dihydro-2H-benzo[b][1,4]oxazin-6-yl)-N-(5-(1-methylpiperidin-4-yl)pyridin-2-yl)pyrimidin-2-amine]
- T/C (MCF-7 tumors; 10 mg/kg PO QD): 51.74%
- TGI (MCF-7 tumors; 10 mg/kg PO QD): 55.83%
- Tumor Size (MCF-7 tumors; 10 mg/kg PO QD): 611 mm^3
- T/C (MCF-7 tumors; 30 mg/kg PO QD): 14.39%
- TGI (MCF-7 tumors; 30 mg/kg PO QD): 99.02%
- Tumor Size (MCF-7 tumors; 30 mg/kg PO QD): 170 mm^3
- Toxicity (body weight changes) (MCF-7 tumors; MCF-7 tumor-bearing mice, 50 days): did not display toxicity
- GI50 (PC-9-luc; [2]): 2790 nM
- Max (%) (PC-9-luc; [3]): 116.3%
- Min (%) (PC-9-luc; [3]): −13.7%
- GI50 (NCI-H460-luc; NCI-H460-Luc, 144 h, 6 days incubation, read-out: Absolute GI50): 228 nM
- Max (%) (NCI-H460-luc; [3]): 101.1%
- Min (%) (NCI-H460-luc; [3]): 1.9%
- Tumor volume (mean ± SEM) (xBT474 breast tumor; Day 0): 146 ± 8 mm^3
- Tumor volume (mean ± SEM) (xBT474 breast tumor; Day 4): 240 ± 20 mm^3
- Tumor volume (mean ± SEM) (xBT474 breast tumor; Day 7): 250 ± 22 mm^3
- Tumor volume (mean ± SEM) (xBT474 breast tumor; Day 11): 347 ± 45 mm^3
- Tumor volume (mean ± SEM) (xBT474 breast tumor; Day 14): 408 ± 42 mm^3
- Tumor volume (mean ± SEM) (xBT474 breast tumor; Day 18): 490 ± 59 mm^3
- Tumor volume (mean ± SEM) (xBT474 breast tumor; Day 21): 549 ± 73 mm^3
- Tumor volume (mean ± SEM) (xBT474 breast tumor; Day 25): 576 ± 79 mm^3
- Tumor volume (mean ± SEM) (xBT474 breast tumor; Day 28): 617 ± 84 mm^3
- Tumor volume (mean ± SEM) (xBT474 breast tumor; Day 32): 658 ± 99 mm^3
- Tumor volume (mean ± SEM) (xBT474 breast tumor; Day 35): 721 ± 119 mm^3
- Tumor volume (mean ± SEM) (xBT474 breast tumor; Day 39): 685 ± 107 mm^3
- Tumor volume (mean ± SEM) (xBT474 breast tumor; Day 42): 694 ± 120 mm^3
- Tumor volume (mean ± SEM) (xBT474 breast tumor; Day 46): 707 ± 116 mm^3
- GI50 (COLO 829; Homo sapiens, COLO-829, read-out: Absolute GI50): 875 nM
- Max (%) (COLO 829; inhibition rate): 107.94%
- Min (%) (COLO 829; inhibition rate): −3.11%
- GI50 (SK-MEL-3; Homo sapiens, SK-MEL3, read-out: Absolute GI50): 174 nM
- Max (%) (SK-MEL-3; inhibition rate): 111.93%
- Min (%) (SK-MEL-3; inhibition rate): −1.51%
- GI50 (Nalm-6-luc; [2]): 154 nM
- Max (%) (Nalm-6-luc; [3]): 105.6%
- Min (%) (Nalm-6-luc; [3]): −20.8%
- GI50 (ACHN-luc2; ACHN-luc2, 144 h, 6 days incubation, read-out: Absolute GI50): 47 nM
- Max (%) (ACHN-luc2; [3]): 102.9%
- Min (%) (ACHN-luc2; [3]): 6.0%
- GI50 (H1975-luc; [2]): 226 nM
- Max (%) (H1975-luc; [3]): 105.8%
- Min (%) (H1975-luc; [3]): −2.3%
- Inhibitory effect in cell viability assay [1]: significant inhibitory effects
- GI50 ([1]; read-out: Absolute GI50 values, range over 7 cell lines): 156 to 1240 nM
- TGI (U-118MG xenograft tumors): 96.40%
